Test results taken from publication PMC7838546, “A Thermostable, Modified Cathelicidin-Derived Peptide With Enhanced Membrane-Active Activity Against Salmonella enterica serovar Typhimurium” (Frontiers in Microbiology, 2021).

Tested on: L929 mouse fibroblast cells
Experiment: Cytotoxicity assay (MTT)
Type: cell-based
Conditions: 24 h, 62.5 μg/ml
Method: The toxicity of P7 peptide on L929 mouse fibroblast cells was assessed by a dye reduction assay using 3-(4,5 dimethylthiazol-2-yl)-2,5-diphenyltetrazolium bromide (MTT). Briefly, 3 × 10^4 L929 cells in RPMI 1640 [supplemented with 10% (v/v) fetal bovine serum, 0.2% (w/v) sodium bicarbonate, 2 mM L-glutamine, 100 U/ml penicillin and […] streptomycin] were seeded into each well of 96-well plates and then incubated in a humidified atmosphere with 5% CO2 at 37°C for 24 h. After the incubation period, the peptide was added to obtain final concentrations of 0.98–250 μg/ml; plates were incubated at 37°C under 5% CO2 for 24 h. RPMI 1640 medium with and without cells were used as positive and negative controls, respectively. After incubation, a final concentration of 0.5 mg/ml MTT (Sigma-Aldrich, MO, United States) was added and incubated at 37°C under 5% CO2 for 4 h. Then, the supernatants were removed from each well and 150 μl of dimethyl sulfoxide (DMSO) was added and mixed thoroughly to solubilize the formazan crystals. Subsequently, absorbance was measured at 570 nm using a microplate reader. The cell viability (%) was calculated according to the formula:
%Cellviability=ODTreated-ODBlank/ODUntreated-ODBlank×100

CC[C@H](C)[C@H](NC(=O)CN)C(=O)NCC(=O)N[C@@H](C)C(=O)N[C@H](C(=O)N[C@@H](CC(C)C)C(=O)N[C@@H](CCCCN)C(=O)N[C@H](C(=O)N[C@@H](CC(C)C)C(=O)N[C@H](C(=O)N[C@H](C(=O)NCC(=O)N[C@@H](CC(C)C)C(=O)N1CCC[C@H]1C(=O)N[C@@H](C)C(=O)N[C@@H](CC(C)C)C(=O)N[C@H](C(=O)N[C@@H](CO)C(=O)N[C@@H](Cc1c[nH]c2ccccc12)C(=O)N[C@H](C(=O)N[C@@H](CCCCN)C(=O)N[C@@H](CCCNC(=N)N)C(=O)N[C@@H](CCCCN)C(=O)N[C@@H](CCCNC(=N)N)C(=O)N[C@@H](CCC(N)=O)C(=O)N[C@@H](CCC(N)=O)C(N)=O)[C@@H](C)CC)[C@@H](C)CC)[C@@H](C)O)[C@@H](C)O)C(C)C)C(C)C [Melittin, reference compound]
Cell viability: less than 10%
